Test results: ChEMBL document CHEMBL4138123, “Design, synthesis and biological evaluation of novel pyrazolochalcones as potential modulators of PI3K/Akt/mTOR pathway and inducers of apoptosis in breast cancer cells” (Eur J Med Chem, 2017)

Experiments:
Assay type in all cases: functional
[1] = system: SK-MEL-28; experiment: Cytotoxicity against human SK-MEL-28 cells assessed as cell growth at 1 uM after 48 hrs by sulforhodamine B assay relative to control; conditions: SK-MEL-28, 48 h, read-out: Activity
[2] = system: NCI-H226; experiment: Cytotoxicity against human NCI-H226 cells assessed as cell growth at 0.01 uM after 48 hrs by sulforhodamine B assay relative to control; conditions: NCI-H226, 48 h, read-out: Activity
[3] = system: DU-145; experiment: Cytotoxicity against human DU145 cells assessed as cell growth at 1 uM after 48 hrs by sulforhodamine B assay relative to control; conditions: DU-145, 48 h, read-out: Activity
[4] = system: M14; experiment: Cytotoxicity against human M14 cells assessed as growth inhibition after 48 hrs by sulforhodamine B assay; conditions: M14, 48 h
[5] = system: PC-3; experiment: Cytotoxicity against human PC3 cells assessed as cell growth at 0.01 uM after 48 hrs by sulforhodamine B assay relative to control; conditions: PC-3, 48 h, read-out: Activity
[6] = system: SW-620; experiment: Cytotoxicity against human SW620 cells assessed as cell growth at 0.1 uM after 48 hrs by sulforhodamine B assay relative to control; conditions: SW-620, 48 h, read-out: Activity
[7] = system: NCI/ADR-RES; experiment: Cytotoxicity against human NCI/ADR-RES cells assessed as cell growth at 1 uM after 48 hrs by sulforhodamine B assay relative to control; conditions: read-out: Activity
[8] = system: OVCAR-3; experiment: Cytotoxicity against human OVCAR3 cells assessed as cell growth at 10 uM after 48 hrs by sulforhodamine B assay relative to control; conditions: OVCAR-3, 48 h, read-out: Activity
[9] = system: U-251; experiment: Cytotoxicity against human U251 cells assessed as cell growth at 10 uM after 48 hrs by sulforhodamine B assay relative to control; conditions: U-251, 48 h, read-out: Activity
[10] = system: SF-539; experiment: Cytotoxicity against human SF539 cells assessed as cell growth at 0.1 uM after 48 hrs by sulforhodamine B assay relative to control; conditions: SF-539, 48 h, read-out: Activity
[11] = system: OVCAR-4; experiment: Cytotoxicity against human OVCAR4 cells assessed as cell growth at 0.1 uM after 48 hrs by sulforhodamine B assay relative to control; conditions: OVCAR-4, 48 h, read-out: Activity
[12] = system: UACC-257; experiment: Cytotoxicity against human UACC257 cells assessed as cell growth at 1 uM after 48 hrs by sulforhodamine B assay relative to control; conditions: UACC-257, 48 h, read-out: Activity
[13] = system: NCI-H23; experiment: Cytotoxicity against human NCI-H23 cells assessed as cell growth at 0.1 uM after 48 hrs by sulforhodamine B assay relative to control; conditions: NCI-H23, 48 h, read-out: Activity
[14] = system: CCRF-CEM; experiment: Cytotoxicity against human CCRF-CEM cells assessed as cell growth at 1 uM after 48 hrs by sulforhodamine B assay relative to control; conditions: read-out: Activity
[15] = system: SK-MEL-5; experiment: Cytotoxicity against human SK-MEL-5 cells assessed as cell growth at 100 uM after 48 hrs by sulforhodamine B assay relative to control; conditions: SK-MEL-5, 48 h, read-out: Activity
[16] = system: SF-539; experiment: Cytotoxicity against human SF539 cells assessed as cell growth at 100 uM after 48 hrs by sulforhodamine B assay relative to control; conditions: SF-539, 48 h, read-out: Activity
[17] = system: MDA-MB-435; experiment: Cytotoxicity against human MDA-MB-435 cells assessed as cell growth at 0.01 uM after 48 hrs by sulforhodamine B assay relative to control; conditions: MDA-MB-435, 48 h, read-out: Activity
[18] = system: OVCAR-8; experiment: Cytotoxicity against human OVCAR8 cells assessed as cell growth at 1 uM after 48 hrs by sulforhodamine B assay relative to control; conditions: OVCAR-8, 48 h, read-out: Activity
[19] = system: NCI/ADR-RES; experiment: Cytotoxicity against human NCI/ADR-RES cells assessed as cell growth at 0.1 uM after 48 hrs by sulforhodamine B assay relative to control; conditions: read-out: Activity
[20] = system: DU-145; experiment: Cytotoxicity against human DU145 cells assessed as cell growth at 0.01 uM after 48 hrs by sulforhodamine B assay relative to control; conditions: DU-145, 48 h, read-out: Activity
[21] = system: COLO 205; experiment: Cytotoxicity against human COLO205 cells assessed as cell growth at 0.1 uM after 48 hrs by sulforhodamine B assay relative to control; conditions: COLO 205, 48 h, read-out: Activity
[22] = system: Hs-578T; experiment: Cytotoxicity against human Hs 578T cells assessed as cell growth at 0.1 uM after 48 hrs by sulforhodamine B assay relative to control; conditions: read-out: Activity
[23] = system: MCF7; experiment: Cytotoxicity against human MCF7 cells assessed as cell growth at 10 uM after 48 hrs by sulforhodamine B assay relative to control; conditions: MCF7, 48 h, read-out: Activity
[24] = system: SF-539; experiment: Cytotoxicity against human SF539 cells assessed as cell growth at 1 uM after 48 hrs by sulforhodamine B assay relative to control; conditions: SF-539, 48 h, read-out: Activity
[25] = system: HCT-15; experiment: Cytotoxicity against human HCT15 cells assessed as cell growth at 10 uM after 48 hrs by sulforhodamine B assay relative to control; conditions: HCT-15, 48 h, read-out: Activity
[26] = system: U-251; experiment: Cytotoxicity against human U251 cells assessed as cell growth at 1 uM after 48 hrs by sulforhodamine B assay relative to control; conditions: U-251, 48 h, read-out: Activity
[27] = system: CCRF-CEM; experiment: Cytotoxicity against human CCRF-CEM cells assessed as cell growth at 0.1 uM after 48 hrs by sulforhodamine B assay relative to control; conditions: read-out: Activity
[28] = system: OVCAR-4; experiment: Cytotoxicity against human OVCAR4 cells assessed as cell growth at 100 uM after 48 hrs by sulforhodamine B assay relative to control; conditions: OVCAR-4, 48 h, read-out: Activity
[29] = system: LOX IMVI; experiment: Cytotoxicity against human LOXIMVI cells assessed as growth inhibition after 48 hrs by sulforhodamine B assay
[30] = system: MDA-MB-468; experiment: Cytotoxicity against human MDA-MB-468 cells assessed as growth inhibition after 48 hrs by sulforhodamine B assay; conditions: MDA-MB-468, 48 h
[31] = system: HT-29; experiment: Cytotoxicity against human HT-29 cells assessed as cell growth at 0.1 uM after 48 hrs by sulforhodamine B assay relative to control; conditions: HT-29, 48 h, read-out: Activity
[32] = system: NCI-H226; experiment: Cytotoxicity against human NCI-H226 cells assessed as cell growth at 10 uM after 48 hrs by sulforhodamine B assay relative to control; conditions: NCI-H226, 48 h, read-out: Activity
[33] = system: PC-3; experiment: Cytotoxicity against human PC3 cells assessed as cell growth at 100 uM after 48 hrs by sulforhodamine B assay relative to control; conditions: PC-3, 48 h, read-out: Activity
[34] = system: SR; experiment: Cytotoxicity against human SR cells assessed as cell growth at 0.01 uM after 48 hrs by sulforhodamine B assay relative to control; conditions: read-out: Activity
[35] = system: MDA-MB-435; experiment: Cytotoxicity against human MDA-MB-435 cells assessed as cell growth at 1 uM after 48 hrs by sulforhodamine B assay relative to control; conditions: MDA-MB-435, 48 h, read-out: Activity
[36] = system: MDA-MB-468; experiment: Cytotoxicity against human MDA-MB-468 cells assessed as cell growth at 10 uM after 48 hrs by sulforhodamine B assay relative to control; conditions: MDA-MB-468, 48 h, read-out: Activity

`COc1ccc(C(=O)/C=C/c2cc(-c3cc(OC)c(OC)c(OC)c3)n[nH]2)cc1` gave a growth at 1 µM [1] of 101%, a growth at 0.01 µM [2] of 99% and a growth at 1 µM [3] of 76%. The LC50 (concentration killing 50% of cells) [4] was greater than 100 µM, the TGI [4] was 4.93 µM and the growth at 0.01 µM [5] was 99%. The growth at 0.1 µM [6] was 97%, the growth at 1 µM [7] was 90% and the growth at 10 µM [8] was -72%. For the same compound, the growth at 10 µM [9] was -98%, the growth at 0.1 µM [10] was 99% and the growth at 0.1 µM [11] was 94%. For the same compound, the growth at 1 µM [12] was 87%, the growth at 0.1 µM [13] was 92% and the growth at 1 µM [14] was 62%. For the same compound, the growth at 100 µM [15] was -93%, the growth at 100 µM [16] was -92% and the growth at 0.01 µM [17] was 99%. For the same compound, the growth at 1 µM [18] was 86%, the growth at 0.1 µM [19] was 97% and the growth at 0.01 µM [20] was 102%. The growth at 0.1 µM [21] was 101%, the growth at 0.1 µM [22] was 100% and the growth at 10 µM [23] was -64%. It also gave a growth at 1 µM [24] of 87%, a growth at 10 µM [25] of -41% and a growth at 1 µM [26] of 81%. It also gave a growth at 0.1 µM [27] of 98%, a growth at 100 µM [28] of -15% and a TGI [29] of 3.02 µM. It also gave a GI50 [30] of 1.29 µM, an LC50 [30] of 5.45 µM and a TGI [30] of 2.65 µM. For the same compound, the growth at 0.1 µM [31] was 102%, the growth at 10 µM [32] was -59% and the growth at 100 µM [33] was 1%. It also gave a growth at 0.01 µM [34] of 97%, a growth at 1 µM [35] of 92% and a growth at 10 µM [36] of -92%.
`COc1cc(-c2cc(/C=C/C(=O)c3ccc4c(c3)OCO4)[nH]n2)cc(OC)c1OC` was tested, and the growth at 1 µM [1] was 92%, the growth at 0.01 µM [2] was 97% and the growth at 1 µM [3] was 90%. The LC50 (concentration killing 50% of cells) [4] was greater than 100 µM, the TGI [4] was greater than 100 µM and the growth at 0.01 µM [5] was 100%. It also gave a growth at 0.1 µM [6] of 96%, a growth at 1 µM [7] of 96% and a growth at 10 µM [8] of 4%. For the same compound, the growth at 10 µM [9] was -31%, the growth at 0.1 µM [10] was 99% and the growth at 0.1 µM [11] was 92%. The growth at 1 µM [12] was 81%, the growth at 0.1 µM [13] was 93% and the growth at 1 µM [14] was 67%. It also gave a growth at 100 µM [15] of 8%, a growth at 100 µM [16] of -83% and a growth at 0.01 µM [17] of 96%. It also gave a growth at 1 µM [18] of 91%, a growth at 0.1 µM [19] of 95% and a growth at 0.01 µM [20] of 104%. It also gave a growth at 0.1 µM [21] of 101%, a growth at 0.1 µM [22] of 98% and a growth at 10 µM [23] of -1%. The growth at 1 µM [24] was 86%, the growth at 10 µM [25] was -13% and the growth at 1 µM [26] was 85%. The growth at 0.1 µM [27] was 90%, the growth at 100 µM [28] was 3% and the LC50 [29] was 7.83 µM. It also gave a TGI [29] of 3.78 µM, a GI50 [30] of 1.4 µM and an LC50 [30] of 5.82 µM. It also gave a TGI [30] of 2.86 µM, a growth at 0.1 µM [31] of 100% and a growth at 10 µM [32] of 14%. The growth at 100 µM [33] was -38%, the growth at 0.01 µM [34] was 106% and the growth at 1 µM [35] was 90%. It also gave a growth at 10 µM [36] of -88%.
With `COc1cc(-c2cc(/C=C/C(=O)c3ccc(N)cc3)[nH]n2)cc(OC)c1OC` the growth at 1 µM [1] was 90%, the growth at 0.01 µM [2] was 92% and the growth at 1 µM [3] was 78%. It also gave a GI50 [4] of 1.83 µM, an LC50 (concentration killing 50% of cells) [4] of 8.17 µM and a TGI [4] of 3.86 µM. It also gave a growth at 0.01 µM [5] of 97%, a growth at 0.1 µM [6] of 95% and a growth at 1 µM [7] of 98%. For the same compound, the growth at 10 µM [8] was -71%, the growth at 10 µM [9] was -96% and the growth at 0.1 µM [10] was 99%. For the same compound, the growth at 0.1 µM [11] was 105%, the growth at 1 µM [12] was 91% and the growth at 0.1 µM [13] was 105%. For the same compound, the growth at 1 µM [14] was 36%, the growth at 100 µM [15] was -94% and the growth at 100 µM [16] was -99%. For the same compound, the growth at 0.01 µM [17] was 90%, the growth at 1 µM [18] was 81% and the growth at 0.1 µM [19] was 110%. For the same compound, the growth at 0.01 µM [20] was 107%, the growth at 0.1 µM [21] was 100% and the growth at 0.1 µM [22] was 88%. It also gave a growth at 10 µM [23] of -24%, a growth at 1 µM [24] of 69% and a growth at 10 µM [25] of -12%. It also gave a growth at 1 µM [26] of 76%, a growth at 0.1 µM [27] of 91% and a growth at 100 µM [28] of -96%. For the same compound, the GI50 [29] was 1.06 µM, the LC50 [29] was 6.72 µM and the TGI [29] was 3.28 µM. The GI50 [30] was 1.01 µM, the LC50 [30] was 8.42 µM and the TGI [30] was 2.91 µM. For the same compound, the growth at 0.1 µM [31] was 102%, the growth at 10 µM [32] was -73% and the growth at 100 µM [33] was -39%. The growth at 0.01 µM [34] was 92%, the growth at 1 µM [35] was 88% and the growth at 10 µM [36] was -58%.
